From patent US11559565B2, “Methods for treating inflammatory disorders and traumatic brain injury using stabilized non-hematopoietic EPO short peptides” (United States Government as Represented By The Department …, priority 2005, dated 2023)
No end group written: not given here.

Key:
[1] = Deaths, clinical morbidity, blood chemistries and signs of toxicity in treated EAE mice; format: in vivo, SJL/J mice
Procedure: An EAE model was established in strain SJL/J mice that is characterized by a relapsing-remitting clinical course. […] Immediately after immunization, animals received an intravenous injection of 200 ng Bordetella pertussis toxin in 200 μl PBS. Animals were weighed daily and assessed for clinical signs of EAE by two independent observers.
[…] Blood was collected for 5 weeks to document changes in hematocrit.

[2] = test system: brain injured mice (controlled cortical impact); assay: Controlled cortical impact traumatic brain injury, TUNEL positive cells in the injured hemisphere; conditions: for number of dying (TUNEL positive) cells: i.p. within 30 minutes of trauma for 3 days, both 3 and 8 days post injury, p<0.001 and p<0.01
Text: C57BL/6 mice were anesthetized with isofurane/oxygen inhalation and placed in a stereotaxic frame. The head position was established in the horizontal plane and a craniotomy (4 mm) was produced lateral to the sagittal suture between lambda and bregma, with the dura mater left intact over the cortex. A cortical contusion injury was produced utilizing a pneumatically driven 2.5 mm diameter rod tip at 3.5 m/s to a depth of 1 mm with a dwell time of 400 ms (Precision System Instruments TBI-0300 Impactor, Lexington, Ky.). After injury, a 5 mm disk constructed from dental cement was placed over the craniotomy site and adhered to the skull using cyanocrylate. During the early post-operative phase, animal temperature was maintained by placing the animals on heating pads.
Mice in the whole molecule EPO group received 5000 U/kg body weight rhEPO (Epoetin alpha, Amgen, Thousand Oaks, Calif.) intraperitoneally (i.p.). […] Mice in the PBS and sham-operated groups received 200 μl filtered sterile PBS.
Mice were sacrificed at 3 days or 8 days post-injury; brains were collected and immediately frozen on dry ice. The frozen brains were serially sectioned in coronal cuts onto 15 slides with 12 sections (16 μm thickness) per slide extending from the anterior to the posterior edge of the lesion. Sections were placed such that each individual slide contained a representative sampling of the entire lesion within the injured hemisphere.
Cell death in the mouse brains was detected using a modification of the Apoptag® (Millipore, Billerica, Mass.) in situ TUNEL method. Cryosections (16 μm thickness) were mounted and fixed in 100% acetone for 10 minutes. The slides were rehydrated and post-fixed in 2:1 ethanol:acetic acid for 11 minutes at −20° C., and then washed thoroughly in Stop/Wash Buffer (Apoptag®). Slides were incubated with equilibration buffer for 10 minutes immediately followed by working strength TdT enzyme (33 parts enzyme/77 parts buffer (Apoptag®)) for 60 minutes at 37° C. The TUNEL reaction was detected with Cy3 anti-digox (1:200; Jackson Immunoresearch, West Grove, Pa.).
Micrographs of the processed slides were acquired with a fluorescent Olympus BX60 microscope fitted with a Retiga 2000R digital camera at 10 times magnification. The total number of TUNEL positive cells in lesioned hemispheres and the total area of the brain containing the TUNEL positive cells were quantified using digital imaging software (I.P. lab 4.0, Becton Dickinson, Franklin Lakes, N.J.).
The animals were sacrificed after 3 or 8 days and the injured forebrain lesions were serially sectioned. Cell death within the damaged hemisphere was quantified by DNA fragmentation (TUNEL stain) to determine the degree of neuroprotection. Serial sections containing the entire lesion site and the TUNEL labeled peri-lesional zone were photographed, digitized, and the images used to quantify the number of positive cells by IP lab 4.0 Software (Becton Dickinson, Franklin Lakes, N.J.).
Mice were sacrificed 3 days post-TBI. The effect of treatment delay was determined by TUNEL staining.

[3] = set-up: species or system SJL/J mice; conditions: mouse, in vivo
Procedure: An EAE model was established in strain SJL/J mice that is characterized by a relapsing-remitting clinical course. Briefly, mice were immunized subcutaneously at the tail base with 100 μl (200 μg) myelin oligodendrocyte glycoprotein (MOG) peptide dissolved in distilled water and emulsified with an equal volume of complete Freund's adjuvant supplemented with 4 mg/ml Mycobacterium tuberculosis H37Ra. Immediately after immunization, animals received an intravenous injection of 200 ng Bordetella pertussis toxin in 200 μl PBS. Animals were weighed daily and assessed for clinical signs of EAE by two independent observers.
Five mice per group were given either daily i.v. full length EPO (50-500 U/kg) or short EPO-peptide JM-4 peptide (250-500 μg/kg; 5-10 μg/mouse) in PBS, or PBS alone for 9 to 14 days. Blood was collected for 5 weeks to document changes in hematocrit.
Hematocrit can be determined by centrifuging heparinized blood in a capillary tube (microhematocrit tube) at 10,000 rpm for 5 minutes. This separates the blood into layers. The volume of packed red blood cells, divided by the total volume of the blood sample gives the packed cell volume (PCV). Because a tube is used, this can be calculated by measuring the lengths of the layers.

EAE in SJL/J mice = assay: PLP antigen-induced relapsing-remitting EAE, clinical score; format: in vivo
Procedure: JM-4 peptide rapidly reduces neurologic deficit in EAE mice. […] Mice first were immunized with a suboptimal dose of PLP antigen (100 μg) on day 0; the mice developed clinical deficits, and were allowed to recover for about 21 days. Recovered EAE mice received 7 days of treatment with either cyclic JM-4 peptide (i.v. 250 ng/kg) or PBS (i.v.) before receiving a second PLP antigen immunization (100 μg).

[4] = test system: PLP antigen-induced symptomatic SJL/J EAE mice; assay: Spinal cord pathology in EAE mice (mononuclear infiltration, SMI-32 staining); format: in vivo; conditions: treated 7 days
Procedure: Groups of PLP antigen-induced symptomatic SJL/J EAE mice were treated with either JM-4 peptide or PBS for 7 days, and spinal cords were removed for pathologic examination.
Monoclonal antibody (SMI-32) (Sternberger Monoclonal Antibodies, Lutherville, Md.) that reacts with a nonphosphorylated epitope in neurofilament H-was used. The reaction is masked when the epitope is phosphorylated. Briefly, frozen tissue sections (16 μm) were acetone-fixed for 10 minutes and air dried. Antigen retrieval was performed using 1× Target Unmasking Fluid (TUF) (Zymed Laboratories, San Francisco, Calif.). Slides were reacted with TUF at 95° C. for 10 minutes, then at room temperature (25° C.) for 10 minutes. SMI-32 primary antibody was diluted (1:5000) with 2% normal horse serum in PBS (1×) and reacted overnight at 4° C. Additional slides were processed without the primary antibody to provide an appropriate control. Slides then were washed twice with PBS (1×) for 3 minutes each wash, and reacted with a biotinylated anti-mouse antibody (Vector Laboratories, Burlingame, Calif.). The slides were washed twice (PBS (1×), 3 minutes each wash), reacted with an avidin-biotin/horseradish peroxidase complex (Vector Laboratories, Burlingame, Calif.) for 30 minutes at room temperature, and washed (PBS (1×), 3 minutes). Slides were visualized with Tyramide signal amplification/Cyanine-3 dye (Perkin Elmer, Waltham, Mass.) at 1:200 dilution in amplification buffer (Perkin Elmer, Waltham, Mass.). Slides then were mounted in glycerol and examined by fluorescence microscopy.
Acute axonal injury in spinal long tract was assessed by SMI-32 staining for nonphosphorylated neurofilaments (FIG. 3, black DAB staining, bottom 2 panels).

[5] = test system: acutely symptomatic EAE animals; assay: JM-4 peptide therapy on acutely symptomatic EAE animals; format: in vivo; conditions: 4 days of therapy
Text: The effect of JM-4 peptide therapy on acutely symptomatic EAE animals was studied. Five sham-treated animals with EAE were compared to five EAE animals that had received 4 days of therapy with JM-4 peptide. The sham-treated animals were barely capable of moving their heads with marked four limb weakness. […] The JM-4 peptide treated animals have some neurologic residua (they have a waddling gait and their tails drag).

[6] = test system: brain injured mice (controlled cortical impact); assay: Summed area containing TUNEL positive cells within the lesioned hemisphere; format: in vivo, C57BL/6 mice; conditions: 3 days post-injury
Procedure: The effect of JM-4 peptide therapy on the summed area containing TUNEL positive cells within the lesioned hemisphere was evaluated 3 days post-injury. In this experiment, the same TUNEL stained sections (from Example 5) used to quantify the number of TUNEL positive cells were used to quantify the total area containing dying cells within the injured hemisphere.

TBI mice = assay: Simple Neuroassessment of Asymmetric Impairment (SNAP) after traumatic brain injury; format: in vivo, C57BL/6 mice; conditions: 10 days post-injury, versus vehicle treated TBI mice
Procedure: SNAP is a scoring system, based on six tests, developed and validated to assess neurological deficits induced in a mouse model of traumatic brain injury. Mice are evaluated to assess neurological parameters for: (1) interaction with a handler, (2) cage grasp, (3) visual placing, (4) pacing/circling, (5) posture and head tilt, and (6) the baton test. The results from each of the six tests are summed to derive the overall SNAP score. SNAP scores are high when asymmetric deficits are apparent; thus, a neurologically intact animal would be expected to have a SNAP score of “0.” SNAP allows for ambiguous results (for example, a score of ‘1’) and test scores of 2 to 5 are assigned when asymmetric deficits were apparent. In addition, a range is allowed when the deficit appears to span more than one definition for a test score; ranges then are averaged to derive the test score (for example, a range of 2 to 3 would be scored as 2.5 for that test). […]
An uninjured mouse would ambulate in a random pattern (for example, turning either to the right or turning to the left when facing a corner). An injured mouse was expected to ambulate in a consistent pattern (for example, consistently turn toward one direction, and not be readily coaxed in the opposite direction). […]
The effect of JM-4 peptide therapy on neurologic deficits (SNAP scores) was evaluated 10 days post-injury by blinded observers.

Epoetin Alfa [rhEPO, reference compound]
clinical signs of toxicity ([1]; SJL/J mice treated with rhEPO): developed red-blue ears and tails within 5 to 6 days, typically leading to death
number of dying (TUNEL positive) cells [2]: dramatically reduced
effect on hematocrit [3]: increased markedly within one week

GCAEHCSLNENITVPDTKV (also: cyclic, mode of cyclisation not given here) [JM-4]
signs of toxicity ([1]; PLP EAE mice, JM-4 therapy i.v. 250 ng/kg): nor were any signs of toxicity observed
blood chemistries ([1]; small group treated for 7 days): remained unaltered
cell death judged by TUNEL positivity ([2]; 0.1 μg i.p. daily for 72 hours): failed to significantly block cell death
cell death judged by TUNEL positivity ([2]; 1 μg i.p. daily for 72 hours): failed to significantly block cell death
reduction of neural cell death (TUNEL) ([2]; 10 μg i.p., 3 days, FIG. 5A): ~70%
TUNEL positive dying cells versus sham ([2]; 10 μg i.p., first treatment 15 minutes post-injury): statistically significant neuroprotective effect
TUNEL positive dying cells versus sham ([2]; 10 μg i.p., first treatment 3 hours post-injury): equally effective
TUNEL positive dying cells versus sham ([2]; 10 μg i.p., first treatment 9 hours post-injury): equally effective
TUNEL positive dying cells versus sham ([2]; 10 μg i.p., treatment delayed 24 hours): Very little treatment effect
cell death judged by TUNEL positivity ([2]; 10 micrograms i.p. daily for 72 hours, p=0.005): significant protected against cell death
cell death judged by TUNEL positivity ([2]; 50 micrograms i.p. daily for 72 hours, p=0.005): significant protected against cell death
cell death judged by TUNEL positivity ([2]; 100 micrograms i.p. daily for 72 hours, p=0.005): significant protected against cell death
neuroprotection by TUNEL ([2]; 8 days, FIG. 5B): neuroprotective
blocking cell death compared with whole molecule EPO ([2]; JM-4 10 μg i.p. versus EPO 5000 U/kg i.p.): at least as effective as using whole molecule EPO
cell death (TUNEL-positive cells) ([2]; PO by gavage, 100 micrograms daily, 3 hours after injury, p=0.01): effective blocking cell death
therapeutic window ([2]; following severe head trauma): at least 9 hours
number of dying (TUNEL positive) cells [2]: dramatically reduced
clinical signs in response to the second PLP immunization (EAE in SJL/J mice; after 7 days i.v. 250 ng/kg, versus sham, p<0.05): less severe clinical signs at a later time
disease severity in long term follow-up (EAE in SJL/J mice; after discontinuation of all therapy for 30 days, p<0.001): much milder disease
clinical score versus sham treated (saline) (EAE in SJL/J mice; recovered EAE mice, 7 days i.v. 250 ng/kg, p<0.05): Marked clinical improvement
clinical score after a second seven-day treatment course (EAE in SJL/J mice; versus PBS sham treated animals): Clinical improvement again was observed
vacuolar changes ([4]; versus PBS): fewer vacuolar changes
white matter mononuclear infiltration ([4]; versus PBS): marked reduction
injured SMI-32 positive axons ([4]; versus sham): far fewer injured axons
neurologic state versus sham-treated animals [5]: mobile and markedly improved
lesional area containing TUNEL positive cells [6]: much reduced
reduction of lesioned volume (area) ([6]; versus PBS, p<0.001): greater than 50%
effect on hematocrit [3]: no effect on hematocrit
increase in red blood cell mass [3]: not associated with any increase in red blood cell mass
neurologic deficits (composite SNAP score) (TBI mice): significant improvement in neurologic deficits
